Laboratory results: PMC4699860 (Biophysical Journal, 2015)

Biological target: K-Ras4B1-166-GDP (Homo sapiens, UniProt P01116)
Test: Microscale thermophoresis
Type: binding
Details: MST; nucleotide state not given; pH 7.0, 0.05% TWEEN-20

- interaction with K-Ras4B1-166 (in words): abolished the interaction
Substance: Ac-KEKLNSKPGKKKKKKSKTK-NH2 [kR-4B-28]
